Reference: ChEMBL document CHEMBL6096732 (J Med Chem, 2025)
Activity calls are given as the source filed them. The calls are words filed in the database; no cut-off is given here.

Legend:
[1] = target: Protein deacetylase HDAC6 (Homo sapiens, UniProt Q9UBN7); assay: Inhibition of recombinant full length human HDAC6 using Boc-Lys(acetyl)-AMC as substrate preincubated for 1 hr followed by substrate addition and measured after 2 hrs by fluorescence based micro plate reader analysis
[2] = Ratio of AUC (0 to t) to AUC (0 to infinity) in male Sprague-Dawley rat at 20 mg/kg, po measured after 12 hrs by LC-MS/MS analysis; assay type: ADME, organism-based; conditions: in vivo
[3] = system: B16-F10; assay: Inhibition of cell migration in mouse B16-F10 cells assessed as wound area at 5 uM incubated for 24 hrs by wound healing assay (reference value: 50.36 +/- 1.68 %); assay type: functional; design: scale not given: the % may be the effect or the level left
[4] = system: B16-F10; assay: Induction of apoptosis in mouse B16-F10 cells assessed as increase in apoptotic cells at 5 uM incubated for 48 hrs by Annexin V-FITC/PI staining based flow cytometric analysis relative to control; assay type: functional
[5] = system: B16-F10; assay: Induction of apoptosis in mouse B16-F10 cells assessed as increase in apoptotic cells at 10 uM incubated for 48 hrs by Annexin V-FITC/PI staining based flow cytometric analysis relative to control; assay type: functional
[6] = system: B16-F10; assay: Cell cycle arrest in mouse B16-F10 cells assessed as decrease in G2/M phase population at 5 to 20 uM incubated for 48 hrs by RNase A/PI staining based flow cytometric analysis; assay type: functional; conditions: dose 5-20 µM
[7] = target: T1, Histone deacetylase 3 (Mus musculus) (UniProt O88895); assay: Inhibition of HDAC3 in mouse 4T1 cells assessed as increase in histone H3 acetylation level at 5 to 20 uM incubated for 24 hrs by Western blot analysis; assay type: cell-based; conditions: dose 5-20 µM
T1 sequence (whole entry): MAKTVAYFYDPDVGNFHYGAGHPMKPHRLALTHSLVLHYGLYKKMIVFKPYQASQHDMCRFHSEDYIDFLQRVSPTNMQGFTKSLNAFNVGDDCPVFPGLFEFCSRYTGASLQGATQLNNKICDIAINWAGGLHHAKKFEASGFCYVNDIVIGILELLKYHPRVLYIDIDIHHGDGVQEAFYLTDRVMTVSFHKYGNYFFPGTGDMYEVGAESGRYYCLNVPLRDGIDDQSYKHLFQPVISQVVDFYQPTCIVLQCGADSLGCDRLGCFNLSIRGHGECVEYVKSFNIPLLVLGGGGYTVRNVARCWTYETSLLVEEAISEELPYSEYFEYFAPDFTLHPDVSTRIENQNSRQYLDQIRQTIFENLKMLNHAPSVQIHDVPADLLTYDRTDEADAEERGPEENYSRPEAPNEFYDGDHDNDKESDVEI

[8] = system: B16-F10; assay: Effect on acetylated alpha-tubulin expression level in mouse B16-F10 cells at 5 to 20 uM incubated for 24 hrs by Western blot analysis; assay type: functional, cell-based; conditions: dose 5-20 µM
[9] = target: Programmed cell death 1 ligand 1 (Mus musculus) (UniProt Q9EP73); assay: Induction of PD-L1 degradation in mouse B16-F10 cells assessed as decrease in PD-L1 protein level at 2 uM measured after 24 hrs in presence of CA-074 by Western blot analysis; assay type: cell-based
[10] = system: B16-F10; assay: Downregulation of PARP1 expression in mouse B16-F10 cells at 2 uM incubated for 24 hrs by Western blot analysis; assay type: functional, cell-based
[11] = system: B16-F10; assay: Downregulation of PARP1 expression in mouse B16-F10 cells at 2 uM incubated for 24 hrs in presence of olaparib by Western blot analysis; assay type: functional, cell-based
[12] = system: 4T1; assay: Downregulation of PARP1 expression in mouse 4T1 cells at 2 uM incubated for 24 hrs by Western blot analysis; assay type: functional, cell-based
[13] = system: 4T1; assay: Downregulation of PARP1 expression in mouse 4T1 cells at 2 uM incubated for 24 hrs in presence of olaparib by Western blot analysis; assay type: functional, cell-based
[14] = AUC (0 to 12 hrs) in male Sprague-Dawley rat at 2 mg/kg, iv measured after 12 hrs by LC-MS/MS analysis; assay type: ADME, organism-based; conditions: in vivo
[15] = AUC (0 to infinity) in male Sprague-Dawley rat at 2 mg/kg, iv measured after 12 hrs by LC-MS/MS analysis; assay type: ADME, organism-based; conditions: in vivo
[16] = AUMC (0 to t) in male Sprague-Dawley rat at 2 mg/kg, iv measured after 12 hrs by LC-MS/MS analysis; assay type: ADME, organism-based; conditions: in vivo
[17] = MRT (0 to t) in male Sprague-Dawley rat at 2 mg/kg, iv measured after 12 hrs by LC-MS/MS analysis; assay type: ADME, organism-based; conditions: in vivo
[18] = AUC (0 to 12 hrs) in male Sprague-Dawley rat at 20 mg/kg, po measured after 12 hrs by LC-MS/MS analysis; assay type: ADME, organism-based; conditions: in vivo
[19] = Cmax in male Sprague-Dawley rat at 20 mg/kg, po measured after 12 hrs by LC-MS/MS analysis; assay type: ADME, organism-based; conditions: in vivo
[20] = Oral bioavailability in male Sprague-Dawley rat at 20 mg/kg measured after 12 hrs by LC-MS/MS analysis; assay type: ADME, organism-based; conditions: in vivo
[21] = system: B16-F10; assay: Antitumor activity against mouse B16-F10 cells implanted in male C57BL/6 mouse model assessed as tumor growth inhibition at 50 mg/kg, po administered once daily via gavage for 14 days relative to control; assay type: functional; conditions: B16-F10, 336 h, time 14 day, read-out: TGI
[22] = Toxicity in male C57BL/6 mouse implanted with mouse B16-F10 cells assessed as histopathological changes in heart at 50 mg/kg, po administered once daily for 14 days by HandE staining based microscopic analysis; assay type: organism-based; conditions: in vivo, 336 h, time 14 day
[23] = Toxicity in male C57BL/6 mouse implanted with mouse B16-F10 cells assessed as histopathological changes in heart at 50 mg/kg, po co-administered with NP-19 as once daily dosage via gavage for 14 days by HandE staining based microscopic analysis; assay type: organism-based; conditions: in vivo, 336 h, time 14 day
[24] = Toxicity in male C57BL/6 mouse implanted with mouse B16-F10 cells assessed as histopathological changes in kidney at 50 mg/kg, po co-administered with NP-19 as once daily dosage via gavage for 14 days by HandE staining based microscopic analysis; assay type: organism-based; conditions: in vivo, 336 h, time 14 day
[25] = target: T1, Histone deacetylase 3 (Mus musculus); assay: In vivo inhibition of HDAC3 in male C57BL/6 mouse model implanted with mouse B16-F10 cells assessed as increase in acetylated histone H3 level at 50 mg/kg, po administered once daily via gavage for 14 days by Western blot analysis; assay type: functional, organism-based; conditions: time 14.0 day
[26] = target: T1, Histone deacetylase 3 (Mus musculus); assay: In vivo inhibition of HDAC3 in male C57BL/6 mouse model implanted with mouse B16-F10 cells assessed as increase in acetylated histone H3 level in tumor at 50 mg/kg, po administered once daily via gavage for 14 days by DAPI staining based immunofluorescence analysis; assay type: functional, organism-based; conditions: time 14.0 day
[27] = system: Mus musculus; assay: In vivo induction of PD-L1 degradation in male C57BL/6 mouse model implanted with mouse B16-F10 cells assessed as decrease in PD-L1 protein expression in tumor at 50 mg/kg, po co-administered with NP-19 as once daily dosage via gavage for 14 days by DAPI staining based immunofluorescence analysis; assay type: functional, organism-based; conditions: time 14.0 day
[28] = system: 4T1; assay: Antitumor activity against mouse 4T1 cells implanted in female BALB/c mouse model assessed as decrease in PAPR1 expression in tumor administrated orally as once daily dose via gavage for 14 days by DAPI staining based immunofluorescence analysis; assay type: functional, cell-based; conditions: route po, time 14.0 day
[29] = target: Histone deacetylase 3 (Homo sapiens, UniProt O15379); conditions: dose 500.0 nM, time 3.0 hrs
Chain of Histone deacetylase 3 (O15379 whole entry): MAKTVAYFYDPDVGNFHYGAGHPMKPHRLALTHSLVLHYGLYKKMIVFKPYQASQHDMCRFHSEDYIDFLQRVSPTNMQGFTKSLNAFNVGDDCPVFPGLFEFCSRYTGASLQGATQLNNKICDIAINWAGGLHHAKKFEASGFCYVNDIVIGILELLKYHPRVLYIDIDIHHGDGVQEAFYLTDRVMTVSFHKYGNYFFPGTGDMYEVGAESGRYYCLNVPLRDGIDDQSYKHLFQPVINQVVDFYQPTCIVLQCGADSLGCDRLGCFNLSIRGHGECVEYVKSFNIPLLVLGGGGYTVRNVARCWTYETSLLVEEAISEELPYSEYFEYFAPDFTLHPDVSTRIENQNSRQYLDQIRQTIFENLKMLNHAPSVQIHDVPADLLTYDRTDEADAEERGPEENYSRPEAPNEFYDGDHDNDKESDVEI

Chain of Programmed cell death 1 ligand 1 (Mus musculus) (Q9EP73 whole entry): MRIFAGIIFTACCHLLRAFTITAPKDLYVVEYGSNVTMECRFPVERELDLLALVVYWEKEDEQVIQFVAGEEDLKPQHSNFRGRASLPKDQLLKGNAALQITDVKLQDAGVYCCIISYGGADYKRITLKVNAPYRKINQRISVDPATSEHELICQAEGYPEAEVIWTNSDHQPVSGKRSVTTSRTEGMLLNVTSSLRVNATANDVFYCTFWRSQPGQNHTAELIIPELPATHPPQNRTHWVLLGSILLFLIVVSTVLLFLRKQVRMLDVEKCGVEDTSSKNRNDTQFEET
Chain of Protein deacetylase HDAC6 (Q9UBN7 whole entry): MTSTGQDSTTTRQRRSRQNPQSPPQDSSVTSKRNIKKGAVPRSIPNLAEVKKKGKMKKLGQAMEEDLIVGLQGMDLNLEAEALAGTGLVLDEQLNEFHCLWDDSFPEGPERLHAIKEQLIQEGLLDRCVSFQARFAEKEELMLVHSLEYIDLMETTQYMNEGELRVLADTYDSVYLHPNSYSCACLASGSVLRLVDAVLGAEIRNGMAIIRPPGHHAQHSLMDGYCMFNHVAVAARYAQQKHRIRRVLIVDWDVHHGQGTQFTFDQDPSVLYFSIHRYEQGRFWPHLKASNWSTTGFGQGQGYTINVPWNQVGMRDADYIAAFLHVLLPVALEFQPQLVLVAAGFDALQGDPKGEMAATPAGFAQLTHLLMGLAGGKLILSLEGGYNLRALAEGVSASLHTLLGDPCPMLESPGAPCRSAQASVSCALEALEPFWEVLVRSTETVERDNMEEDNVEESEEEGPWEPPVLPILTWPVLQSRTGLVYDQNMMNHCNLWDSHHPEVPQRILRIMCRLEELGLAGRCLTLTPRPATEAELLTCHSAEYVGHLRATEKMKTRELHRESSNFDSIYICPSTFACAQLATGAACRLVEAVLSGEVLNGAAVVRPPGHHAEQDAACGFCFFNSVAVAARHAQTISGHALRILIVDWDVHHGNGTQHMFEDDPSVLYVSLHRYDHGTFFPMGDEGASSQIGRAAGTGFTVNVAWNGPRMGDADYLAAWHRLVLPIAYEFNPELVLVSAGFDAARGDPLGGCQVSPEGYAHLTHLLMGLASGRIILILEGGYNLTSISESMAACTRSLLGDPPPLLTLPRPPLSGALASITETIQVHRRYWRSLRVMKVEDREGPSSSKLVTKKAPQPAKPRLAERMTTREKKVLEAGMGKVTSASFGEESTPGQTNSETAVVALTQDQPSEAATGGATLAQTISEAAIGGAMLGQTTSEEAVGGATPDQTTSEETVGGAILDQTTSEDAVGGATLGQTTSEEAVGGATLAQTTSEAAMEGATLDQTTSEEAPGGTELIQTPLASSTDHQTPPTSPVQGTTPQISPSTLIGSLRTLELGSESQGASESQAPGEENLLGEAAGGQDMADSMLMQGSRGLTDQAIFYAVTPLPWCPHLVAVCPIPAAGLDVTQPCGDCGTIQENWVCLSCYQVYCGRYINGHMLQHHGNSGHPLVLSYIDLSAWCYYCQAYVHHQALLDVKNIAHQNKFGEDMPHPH

For CCCNNC(=O)c1ccc(Cn2c3ccccc3c3c(-c4ccccn4)nc4ccccc4c32)cc1, the IC50 [1] was 8.2 µM, the “Ratio AUC” value [2] was 96.65% and the Activity [3] was 35.33%. The Activity [4] was 25%, the Activity [5] was 44.7% and the Activity [6] was “Active”. The inhibition [7] was “Active”, the Activity [8] was “inactive” and the Activity [9] was “Not active; Ctsb-Mediated Lysosomal Degradation Mechanism Is Observed”. For the same compound, the Activity [10] was “Active”, the Activity [11] was “Active” and the Activity [12] was “Active”. The Activity [13] was “Active”, the AUC(0-t) at 12 h [14] was 857 ng·h/mL and the AUC(0-inf) [15] was 857 ng·h/mL. For the same compound, the AUMCt [16] was 626.686 hr.hr.ug/L, the MRT last at 12 h [17] was 44.3 min and the AUC(0-t) at 12 h [18] was 7830 ng·h/mL. It also gave a Cmax [19] of 1390 ng/mL, a bioavailability [20] of 95.3% and an inhibition in vivo at 50 mg/kg [21] of 67%. The Activity [22] was “Non-toxic”, the Activity [23] was “Non-toxic” and the Activity [24] was “Non-toxic”. For the same compound, the inhibition [25] was “Active”, the inhibition [26] was “Active” and the Activity [27] was “Active”. The Activity [28] was “Active; Comparable To The Effect Of Olaparib” and the inhibition [29] was 96%.
